Consider one compound from patent publication US6712802B1, “Metabolic therapy directed at electron transport” (priority 1997, dated 2004).

SMILES strings stand for the structures. Where two headings read alike, the source gives them in different places.

Experiment [1] relates to isolated hearts. To be noted: 5-minute succinate infusion. From the text:
(§1) Spraque-Dawley rats (250 to 300 g; Sasco Inc., Omaha, Nebr.) were fasted overnight to standardize the levels of glycogen and fatty acids. The animal protocol was reviewed and approved by an appropriate Animal Care and Research Committee. All animals received humane care in compliance with the “Guide for the Care and Use of Laboratory Animals” (NIH Publication No. 85-23, revised 1985). All chemicals were obtained from Sigma (St. Louis, Mo.).
As previously described by Banerjee et al, the hearts from rats anticoagulated with heparin were excised, immediately arrested in iced oxygenated perfusate, placed on a modified Langendorff apparatus, and retrograded perfused at a constant pressure of 70 mm Hg with nonrecirculating Krebs-Henseleit solution saturated with a gas mixture of 92.5% O2 and 7.5% CO2 Banerjee et al., Circ. Res., 73, 649 (1993). A water-filled latex balloon was inserted into the left ventricle (LV) and the balloon volume was adjusted to achieve a stable LV end-diastolic pressure of 5 mm Hg. This volume was then kept constant for the duration of the study. Pacing wires were fixed to the right atrium, and the hearts were paced at 350 beats per minute except during ischemia and the first three minutes of reperfusion.
The left ventricular developed pressure (LVDP, in mm Hg) was used as an index of myocardial function and was continuously recorded with a computerized bridge amplifier/digitalizer (Maclab 8, AD Instruments) and a Macintosh AV 7100 (Apple Computer). Hearts unable to initially produce 90 to 120 mm Hg LVDP when paced at 350 beats per minute were discarded. A stopcock above the aortic root was turned to create global ischemia, during which time the heart was placed in a degassed humidified chamber at 37° C.
The myocardial cytochrome a,a3 redox state, oxymyoglobin (MbO2) and deoxymyoglobin, was continuously monitored using near infrared spectroscopy (NIRS). The use of NIRS to study cardiac metabolism was described previously. In this study, a single NIRS probe (as disclosed in co-pending U.S. patent application Ser. No. 08/672,625) containing five fiber optic bundles (four peripherally arranged to supply infrared light (700 to 1000 nm) and one fiber positioned 4 mm away to receive the transmitted light) was placed on the lift ventricle. For each heart, a signal reference zero value is set at the beginning of the study. The resultant signal changes are continuously processed and recorded using analytic algorithms to separate the effects of each of the signals. The resulting NIRS measurements were taken directly from the monitor and plotted in absorption units versus time. These strips were then printed and saved for subsequent analysis.
In the second phase of the study, 12 isolated hearts were placed on the Langendorff apparatus as described above. After the equilibration period, 5-minute infusions of succinate at concentrations of 0, 2 ,20 ,200, and 2000 μmol/L were delivered via a Harvard infusion pump directly into a port above the aortic cannula at 0.068 mL/minute. LVDP, heart rate, cytochrome a,a3 redox state, MbO2 and deoxymyoglobin were continuously monitored as described above.

For experiment [2], the system named is isolated hearts.
Description: as §1
As previously described by Banerjee et al, the hearts from rats anticoagulated with heparin were excised, immediately arrested in iced oxygenated perfusate, placed on a modified Langendorff apparatus, and retrograded perfused at a constant pressure of 70 mm Hg with nonrecirculating Krebs-Henseleit solution saturated with a gas mixture of 92.5% O2 and 7.5% CO2 Banerjee et al., Circ. Res., 73, 649 (1993). […]
The left ventricular developed pressure (LVDP, in mm Hg) was used as an index of myocardial function and was continuously recorded with a computerized bridge amplifier/digitalizer (Maclab 8, AD Instruments) and a Macintosh AV 7100 (Apple Computer). […]
The myocardial cytochrome a,a3 redox state, oxymyoglobin (MbO2) and deoxymyoglobin, was continuously monitored using near infrared spectroscopy (NIRS). […] The resultant signal changes are continuously processed and recorded using analytic algorithms to separate the effects of each of the signals. […]

Where [3] appears, read: lower concentrations, non-ischemic heart.

As to `O=C(O)CCC(=O)O` [succinate], the “LVDP (left ventricular developed pressure)” value in the experiment with isolated hearts [1] (20 μmol/L) is given as “not different from control”; in the experiment with isolated hearts [1] (200 μmol/L) it was “not different from control”; in the experiment with isolated hearts [1] (2000 μmol/L), “markedly reduced”; with isolated hearts [1] (setting [3]) it was “minimal effects”. Besides, the “cytochrome a,a3 redox state” value with isolated hearts [1] (20 μmol/L) is “reduction of the cytochrome a,a3 redox state”; in the experiment on isolated hearts [1] (200 μmol/L), “reduction of the cytochrome a,a3 redox state”; in the experiment with isolated hearts [1] (2000 μmol/L) it was “markedly reduced”; in the experiment with isolated hearts [1] (setting [3]) it was “minimal effects”. Further, the “cytochrome a,a3 redox state on reperfusion” value in the experiment on isolated hearts [2] (200 μmol/L succinate for first 5 minutes of reperfusion after 20 min global ischemia, versus control buffer) is given as “attenuation of the oxidation”. Besides, the “coupling relationship between oxyhemoglobin and the redox state of cytochrome a,a3” value with isolated hearts [2] (succinate given early in reperfusion at the described dosages) was “restores the coupling relationship”.
